Laboratory results taken from patent US11492405B2, “Reducing systemic regulatory t cell levels or activity for treatment of disease and injury of the CNS” (Yeda Research and Development Co. Ltd, priority 2014, dated 2022).
Entries after “also recorded” stand apart in the source; their conditions may differ.

Assays:
Format in all cases: in vivo, mouse
5XFAD AD-Tg mice [1] = test: GFAP immunostaining (hippocampal astrogliosis) in 5XFAD AD-Tg mice; settings: AD-Tg/Foxp3-DTR+ mice, 3 weeks after last DTx injection
Method: (§1) Tissue processing and immunohistochemistry were performed on paraffin embedded sectioned mouse (6 μm thick) and human (10 μm thick) brains. For human ICAM-1 staining, primary mouse anti-ICAM (1:20 Abcam; ab2213) antibody was used. Slides were incubated for 10 min with 3% H2O2, and a secondary biotin-conjugated anti-mouse antibody was used, followed by biotin/avidin amplification with Vectastain ABC kit (Vector Laboratories). Subsequently, 3,3′-diaminobenzidine (DAB substrate) (Zytomed kit) was applied; slides were dehydrated and mounted with xylene-based mounting solution. For tissue stainings, mice were transcardially perfused with PBS prior to tissue excision and fixation. CP tissues were isolated under a dissecting microscope (Stemi DV4; Zeiss) from the lateral, third, and fourth ventricles of the brain. […] Microscopic analysis, was performed using a fluorescence microscope (E800; Nikon) or laser-scanning confocal microscope (Carl Zeiss, Inc.). The fluorescence microscope was equipped with a digital camera (DXM 1200F; Nikon), and with either a 20×NA 0.50 or 40×NA 0.75 objective lens (Plan Fluor; Nikon). […] For quantification of staining intensity, total cell and background staining was measured using ImageJ software (NIH), and intensity of specific staining was calculated, as previously described (Burgess et al, 2010). […]

5XFAD AD-Tg mice [2] = test: Aβ plaque quantitation (immunohistochemistry) in 5XFAD AD-Tg mice; settings: AD-Tg/Foxp3-DTR+ mice, 3 weeks after last DTx injection
Method: as §1, with “brain. For whole mount CP staining, tissues were fixated with 2.5% paraformaldehyde (PFA) for 1 hour at 4° C., and subsequently transferred to PBS containing 0.05% sodium azide. Prior to staining, the dissected tissues were washed with PBS and blocked (20% horse serum, 0.3% Triton X-100, and PBS) for 1 h at room temperature. Whole mount staining with primary antibodies (in PBS containing 2% horse serum and 0.3% Triton X-100), or secondary antibodies, was performed for 1 h at room temperature. Each step was followed by three washes in PBS. The tissues were applied to slides, mounted with Immu-mount (9990402, from Thermo Scientific), and sealed with cover-slips. For staining of sectioned brains, two different tissue preparation protocols (paraffin embedded or microtomed free-floating sections) were applied, as previously described (Baruch et al, 2013; Kunis et al, 2013).” for “brain.”
From each brain, 6 μm coronal slices were collected, and eight sections per mouse, from four different pre-determined depths throughout the region of interest (dentate gyrus or cerebral cortex) were immunostained. […]

5XFAD AD-Tg mice [3] = test: Radial arm water maze (RAWM) in 5XFAD AD-Tg mice; settings: weekly-GA over 4 weeks
Method: The radial-arm water maze (RAWM) was used to test spatial learning and memory, as was previously described in detail (Alamed et al, 2006). Briefly, six stainless steel inserts were placed in the tank, forming six swim arms radiating from an open central area. The escape platform was located at the end of one arm (the goal arm), 1.5 cm below the water surface, in a pool 1.1 m in diameter. The water temperature was kept between 21-22° C. Water was made opaque with milk powder. Within the testing room, only distal visual shape and object cues were available to the mice to aid in location of the submerged platform. The goal arm location remained constant for a given mouse. On day 1, mice were trained for 15 trials (spaced over 3 h), with trials alternating between a visible and hidden platform, and the last 4 trails with hidden platform only. On day 2, mice were trained for 15 trials with the hidden platform. Entry into an incorrect arm, or failure to select an arm within 15 sec, was scored as an error. Spatial learning and memory were measured by counting the number of arm entry errors or the escape latency of the mice on each trial. Training data were analyzed as the mean errors or escape latency, for training blocks of three consecutive trials.

5XFAD AD-Tg mice [4] = test: Morris water maze (MWM) in 5XFAD AD-Tg mice; settings: weekly-GA vs vehicle (PBS), AD-Tg mice at 6 m
Method: Mice were given three trials per day, for 4 consecutive days, to learn to find a hidden platform located 1.5 cm below the water surface in a pool (1.1 m in diameter). The water temperature was kept between 21-22° C. Water was made opaque with milk powder. Within the testing room, only distal visual shape and object cues were available to the mice to aid in location of the submerged platform. The escape latency, i.e., the time required to find and climb onto the platform, was recorded for up to 60 s. Each mouse was allowed to remain on the platform for 15 s and was then removed from the maze to its home cage. […] The inter-trial interval for each mouse was 10 min. On day 5, the platform was removed, and mice were given a single trial lasting 60 s without available escape. On days 6 and 7, the platform was placed in the quadrant opposite the original training quadrant, and the mouse was retrained for three sessions each day. Data were recorded using the EthoVision V7.1 automated tracking system (Noldus Information Technology). Statistical analysis was performed using analysis of variance (ANOVA) and the Bonferroni post-hoc test. All MWM testing was performed between 10 a.m. and 5 p.m. during the lights-off phase.

Substance | hippocampal gliosis (GFAP immunostaining) (5XFAD AD-Tg mice [1]) | cerebral Aβ plaque burden in hippocampal dentate gyrus and cerebral cortex (5th layer) (5XFAD AD-Tg mice [2]) | time the improved cognitive performance lasted after the treatment (5XFAD AD-Tg mice [3]; 5XFAD AD-Tg mice) | cognitive performance (MWM, RAWM) (5XFAD AD-Tg mice [3]; MWM 1 week, RAWM 1 and 2 months after last injection) | spatial learning/memory performance in acquisition, probe and reversal phases of the MWM (5XFAD AD-Tg mice [4])
Diphtheria toxin [DTx] | reduced astrogliosis; also recorded: reduction in hippocampal gliosis | reduced | – | – | –
Glatiramer acetate [GA] | – | – | up to 2 months | improved cognitive performance | better spatial learning/memory performance
